Measured values published in US9079915B2, “Thienyl- and furanyl-isoquinolinones and methods for using them” (priority 2008, dated 2015).
Structures can show the parent of a compound that is named as a salt.

Legend:
[1] = molecular target: T1, hrPARP-1 (human recombinant, Trevigen) (Homo sapiens, UniProt P09874); assay: Functional assessment of human PARP-1 enzymatic activity; assay type: biochemical; settings: 1 U hrPARP-1, 15 μg/mL activated DNA, 5 μM NAD+, 20 min room temperature
T1 construct: purchased Trevigen
Method: Functional Assessment of Human PARP-1 Enzymatic Activity
hrPARP-1 (human recombinant, Trevigen), Activated DNA (Sigma), 6(5H)-phenanthridinone (PND), (Sigma), NAD+ (Calbiochem), PARP-1 assay buffer (50 mM Tris, 2 mM MgCl2, pH 8.0), 20% acetophenone in EtOH, 2 M KOH
88% formic acid, 110° C. oven, Flexstation Plate Reader.
Compound plates were prepared by making a series of 1:3 dilutions for each tested compound, 10 steps of each at 20 μL in DMSO starting from a concentration of 5 mM. NAD^+ (39 μL of a 6.4 μM solution) were added to each well of a 96-well flat bottom fluorescent assay plate. Test compound (1 μL) was added to each well. To initiate the reaction, 10 μL of PARP (contains 5 U of PARP and 75 μg/mL activated DNA) was added with a final 1 U hrPARP-1, 15 μg/mL activated DNA and 5 μM of NAD^+. The highest concentration used for test compounds was 100 μM. The plates were incubated at room temperature on a shaker. After 20 min, 20 μL of 2 M KOH and 20 μL of 20% acetophenone were added. The plate was incubated 10 min. at 4° C., and 90 μL of 88% formic acid was added. After incubating in an 110° C. oven for 5 min, the plate was cooled to room temperature and read of a Flexstation Plate Reader (excitation at 360 nm, emission at 445 nm).
LSW data analysis software was used to generate PARP-1 IC50s.

[2] = MDCK permeability assay (efflux ratio); assay type: in vitro ADME, Canine; settings: dog, MDCK-MDR1, pH 7.4, MDR-MDCK cells, 37° C., Papp(B-A)/Papp(A-B)
Method: 1. MDCK Permeability Assay
Multi Drug Resistance-Madin-Darby Canine Kidney (MDR-MDCK) cells were obtained from NIH (Bethesda, Md., USA). Cells were plated on Costar 3401 Transwell 12 well, 12 mm diameter, 0.4 um pore size plates (Costar, Mass., USA) and cultured for at least 6 days prior to the transport assay. The cells were carefully pre-washed with Hank's balanced salt solution containing 10 mM HEPES and 15 mM D-glucose at pH 7.4, which was also used as the assay buffer. The test compounds were dosed on the apical side (A-B) or the basolateral side (B-A) with 0.2 mM Lucifer Yellow (500 μL into apical side, 1500 μL into basolateral side). The test compounds in the apical or basolateral chambers were at an initial concentration of 10 μM. The plates were incubated at 37° C. with 5% CO2 and 90% relative humidity for 2 hours. One hundred microliters of receiver solution (basolateral side for A-B transport experiment, apical side for B-A transport experiment) was transferred to a 96 well plate for LC-MS-MS quantization of the test compound concentration and fluorometer quantization of Lucifer Yellow.
Quality control compounds and TEER measurements were run to assure proper operation of the assay (see Table 2). The TEER values of each well use for the assay should be ≧1400 ohm·cm^2.

[3] = Microsomal stability, rat liver microsomes; assay type: in vitro ADME; settings: 0.5 mg/mL protein
Method: (§1) The assay protocol was described in Summerfield S G, Read K, Begley D J, Obradovic T, Hidalgo I J, Coggon S, Lewis A V, Porter R A, Jeffrey P 2007. Central Nervous System Drug Disposition: The Relationship between in Situ Brain Permeability and Brain Free Fraction. J Pharmacol Exp Ther, 322(1):205-213; and Li Di, E. Kerns, S. Li, S. Petusky, “High Throughput Metabolic Stability Assay for Insoluble Compounds”, Int. J. Pharm., 317, 54-60, 2006.
(§2) The samples were incubated with liver microsomes from rat, mouse, and human at 1 μM at microsomal protein concentration of 0.5 mg/mL at 37° C. in the presence of NADPH cofactor. At both time 0 and 15 minutes incubation, cold acetonitrile was added to the wells to stop the reaction. The solution was centrifuged and the supernatants were analyzed using LC-MS-MS. “Phase I” represents Phase I metabolism-oxidative metabolism by microsomes and “Phase II” represents Phase I oxidative metabolism (stated above) plus cofactors added that allow for Phase II (non-oxidative, conjugative) metabolism to take place.

[4] = Microsomal stability, C57 mouse liver microsomes; assay type: in vitro ADME; settings: 0.5 mg/mL protein
Method: as §1, §2

[5] = Microsomal stability, human liver microsomes; assay type: in vitro ADME; settings: 0.5 mg/mL protein
Method: as §1, §2

[6] = Brain (B)-Plasma (P) dialysis; assay type: in vitro ADME; settings: for Kp at 5 h, 10 μM: diluted plasma or brain homogenate vs PBS, 37° C., read-out: Brain-Plasma Dialysis B/P Ratio; for B/P ratio divided by MDCK efflux ratio at 10 μM: read-out: Brain-Plasma Dialysis B/P/efflux ratio (ER)
Method: 2. Brain (B)-Plasma (P) Dialysis
DMSO stock solution of 1 mM was prepared and 10 μL was added to 990 uL plasma (1 plasma:3 PBS) or brain homogeneous (1 brain:12 PBS). The final concentration was 10 μM test compound with 1% DMSO. The dialysis was setup with 200 uL PBS vs. 200 uL diluted plasma or diluted brain homogenates with test compounds. The dialysis plate was incubated at 37° C., 70 RPM for 5 hours. At the end of the incubation, 150 μL PBS, 50 uL plasma and 50 uL of brain homogenates were sampled from the dialysis device. Each of the samples was matched with PBS, plasma and brain homogenates to give consistent matrix material. Cold acetonitrile of 300 μL was added to the sample to precipitate the proteins and tissues. The solutions were centrifuged and the supernatants were transferred for LC-MS-MS analysis. Four replicates were preformed for each test compound. Data was calculated according to Summerfield S G, Read K, Begley D J, Obradovic T, Hidalgo I J, Coggon S, Lewis A V, Porter R A, Jeffrey P 2007. Central Nervous System Drug Disposition: The Relationship between in Situ Brain Permeability and Brain Free Fraction.

[7] = NADPH, Phase I, read-out: Microsomal Stability Rat Phase I t1/2
[8] = Phase I plus Phase II cofactors, read-out: Microsomal Stability Rat Phase I & II t1/2
[9] = NADPH, Phase I, read-out: Microsomal Stability C57 Mouse Phase I t1/2
[10] = Phase I plus Phase II cofactors, read-out: Microsomal Stability C57 Mouse Phase I & II t1/2
[11] = NADPH, Phase I, read-out: Microsomal Stability Human Phase I t1/2
[12] = Phase I plus Phase II cofactors, read-out: Microsomal Stability Human Phase I & II t1/2

T1 sequence (P09874 whole entry): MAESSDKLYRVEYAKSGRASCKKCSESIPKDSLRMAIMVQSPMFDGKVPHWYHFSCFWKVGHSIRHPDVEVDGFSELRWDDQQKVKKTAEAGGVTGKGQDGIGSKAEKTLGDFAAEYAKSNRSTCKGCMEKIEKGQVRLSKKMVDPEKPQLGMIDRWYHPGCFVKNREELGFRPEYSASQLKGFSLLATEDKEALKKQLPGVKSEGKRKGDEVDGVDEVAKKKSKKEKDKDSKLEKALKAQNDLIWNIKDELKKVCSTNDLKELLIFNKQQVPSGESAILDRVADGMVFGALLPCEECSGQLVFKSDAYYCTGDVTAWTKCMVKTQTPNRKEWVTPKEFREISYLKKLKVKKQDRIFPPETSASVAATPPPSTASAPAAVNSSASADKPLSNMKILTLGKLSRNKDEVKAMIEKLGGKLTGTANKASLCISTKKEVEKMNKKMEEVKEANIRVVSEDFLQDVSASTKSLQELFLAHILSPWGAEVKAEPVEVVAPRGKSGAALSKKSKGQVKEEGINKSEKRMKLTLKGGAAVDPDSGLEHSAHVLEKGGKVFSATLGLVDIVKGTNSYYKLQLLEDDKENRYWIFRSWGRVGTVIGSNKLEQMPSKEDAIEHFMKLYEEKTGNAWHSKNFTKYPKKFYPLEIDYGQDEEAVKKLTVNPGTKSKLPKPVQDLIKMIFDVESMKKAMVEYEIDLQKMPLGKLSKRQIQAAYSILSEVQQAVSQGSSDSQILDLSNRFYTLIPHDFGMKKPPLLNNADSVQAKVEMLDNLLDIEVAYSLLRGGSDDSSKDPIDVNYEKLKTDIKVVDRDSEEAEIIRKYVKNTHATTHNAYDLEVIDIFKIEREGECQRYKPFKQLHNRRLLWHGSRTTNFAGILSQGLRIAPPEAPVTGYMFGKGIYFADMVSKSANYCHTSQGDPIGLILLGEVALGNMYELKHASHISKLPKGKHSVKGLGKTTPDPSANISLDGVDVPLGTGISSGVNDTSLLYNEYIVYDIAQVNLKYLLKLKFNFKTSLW

| Structure (SMILES) | IC50 [1] | efflux ratio at 2 h, 10 μM [2] | half-life at 1 μM [3, 7] | half-life at 1 μM [3, 8] | half-life at 1 μM [4, 9] | half-life at 1 μM [4, 10] | half-life at 1 μM [5, 11] | half-life at 1 μM [5, 12] | Kp at 5 h, 10 μM [6] | B/P ratio divided by MDCK efflux ratio at 10 μM [6] | melting point |
| --- | --- | --- | --- | --- | --- | --- | --- | --- | --- | --- | --- |
| CN(C)Cc1cc2c([nH]c(=O)c3ccc(Cl)cc32)s1 [Example 6, 8-Chloro-2-[(dimethylamino)methyl]thieno[2,3-c]isoquinolin-5(4H)-one hydrochloride] | 2.25 µM | – | – | – | – | – | – | – | – | – | – |
| CN(Cc1ccccc1)Cc1cc2c([nH]c(=O)c3cccc(O)c32)s1 [Example 17, 2-{[Benzyl(methyl)amino]methyl}-9-hydroxythieno[2,3-c]isoquinolin-5(4H)-one] | 0.373 µM | – | – | – | – | – | – | – | – | – | – |
| O=c1[nH]c2sc(CN3CCOCC3)cc2c2c(O)cccc12 [Example 10, 9-Hydroxy-2-(morpholin-4-ylmethyl)thieno[2,3-c]isoquinolin-5(4H)-one] | 0.0056 µM | 3.1 | 30 min | > 30 min | > 30 min | > 30 min | > 30 min | 30 min | 0.81 | 0.04 | – |
| CN(C)Cc1cc2c([nH]c(=O)c3cc(F)cc(O)c32)s1 [Example 7, 2-[(Dimethylamino)methyl]-7-fluoro-9-hydroxythieno[2,3-c]isoquinolin-5(4H)-one hydrochloride] | 0.038 µM | – | – | – | – | – | – | – | – | – | – |
| CN(C)Cc1cc2c([nH]c(=O)c3ccccc32)s1 [Example 3, 2-[(Dimethylamino)methyl]thieno[2,3-c]isoquinolin-5(4H)-one hydrochloride] | 0.26 µM | – | – | – | – | – | – | – | – | – | – |
| O=c1[nH]c2sc(CN3CCSC3)cc2c2c(O)cccc12 [Example 12, 9-Hydroxy-2-(1,3-thiazolidin-3-ylmethyl)thieno[2,3-c]isoquinolin-5(4H)-one] | 0.0033 µM | 0.8 | 5 min | 5 min | 4 min | 5 min | 6 min | 4 min | 0.79 | 0.79 | – |
| COc1cccc2c(=O)[nH]c3sc(CN(C)C)cc3c12.Cl [Example 1, 2-Dimethylaminomethyl-9-methoxythieno[2,3-c]isoquinolin-5(4H)-one hydrochloride] | 0.137 µM | – | – | – | – | – | – | – | – | – | 264 to 265 °C |
| COc1ccc2c(=O)[nH]c3sc(CN(C)C)cc3c2c1 [Example 8, 2-[(Dimethylamino)methyl]-8-methoxythieno[2,3-c]isoquinolin-5(4H)-one hydrochloride] | 2.19 µM | – | – | – | – | – | – | – | – | – | – |
| O=c1[nH]c2sc(CN3CCC(Br)CC3)cc2c2c(O)cccc12 [Example 15, 2-[(4-Bromopiperidin-1-yl)methyl]-9-hydroxythieno[2,3-c]isoquinolin-5(4H)-one] | 0.035 µM | 0.9 | 3 min | 3 min | 4 min | 3 min | 7 min | 5 min | 1.12 | 1.12 | – |
| CN(C)Cc1cc2c([nH]c(=O)c3cccc(F)c32)s1 [Example 5, 2-[(Dimethylamino)methyl]-9-fluorothieno[2,3-c]isoquinolin-5(4H)-one hydrochloride] | 0.2 µM | – | – | – | – | – | – | – | – | – | – |
| Br.CN(C)Cc1cc2c([nH]c(=O)c3cccc(O)c32)s1 [Example 2, 2-Dimethylaminomethyl-9-hydroxythieno[2,3-c]isoquinolin-5(4H)-one hydrobromide] | 0.028 µM | 1.7 | 6 min | < 1 min | 15 min | 19 min | > 30 min | 17 min | 0.05 | 0.03 | – |

Continued by falling IC50 [1], values first:

| IC50 [1] | efflux ratio at 2 h, 10 μM [2] | half-life at 1 μM [3, 7] | half-life at 1 μM [3, 8] | half-life at 1 μM [4, 9] | half-life at 1 μM [4, 10] | half-life at 1 μM [5, 11] | half-life at 1 μM [5, 12] | Kp at 5 h, 10 μM [6] | B/P ratio divided by MDCK efflux ratio at 10 μM [6] | melting point | Structure (SMILES) |
| --- | --- | --- | --- | --- | --- | --- | --- | --- | --- | --- | --- |
| 1.06 µM | – | – | – | – | – | – | – | – | – | – | O=c1[nH]c2sc(CN(Cc3ccccc3)Cc3ccccc3)cc2c2c(O)cccc12 [Example 16, 2-[(Dibenzylamino)methyl]-9-hydroxythieno[2,3-c]isoquinolin-5(4H)-one] |
| 0.161 µM | – | – | – | – | – | – | – | – | – | – | CN(C)Cc1cc2c([nH]c(=O)c3ccccc32)o1 [Example 9, 2-[(Dimethylamino)methyl]furo[2,3-c]isoquinolin-5(4H)-one hydrochloride] |
| 0.1 µM | – | – | – | – | – | – | – | – | – | – | CN(C)Cc1cc2c([nH]c(=O)c3cc(F)ccc32)s1 [Example 4, 2-[(Dimethylamino)methyl]-7-fluorothieno-[2,3-c]isoquinolin-5(4H)-one hydrochloride] |
| 0.086 µM | – | < 1 min | < 1 min | 28 min | 24 min | > 30 min | > 30 min | 1.53 | – | – | CC(C)NCc1cc2c([nH]c(=O)c3cccc(O)c32)s1 [Example 13, 9-Hydroxy-2-{[(1-methylethyl)amino]methyl}thieno[2,3-c]isoquinolin-5(4H)-one] |
| 0.081 µM | > 20 | > 30 min | > 30 min | > 30 min | > 30 min | > 30 min | > 30 min | 1.03 | < 0.05 | – | O=c1[nH]c2sc(CN3CCCC3)cc2c2c(O)cccc12 [Example 14, 9-Hydroxy-2-(pyrrolidin-1-ylmethyl)thieno[2,3-c]isoquinolin-5(4H)-one] |
| 0.0047 µM | 10.4 | 10 min | 18 min | 27 min | > 30 min | 19 min | 17 min | 1.25 | 0.12 | – | O=c1[nH]c2sc(CN3CCCCC3)cc2c2c(O)cccc12 [Example 11, 9-Hydroxy-2-(piperidin-1-ylmethyl)thieno[2,3-c]isoquinolin-5(4H)-one] |
